Measured values as given in the NIST ThermoML archive (doi:10.1016/j.jct.2010.10.016).

Assay: xn = mol fraction of the nth substance listed
Settings: 101 kPa, Liquid; for mass density: Pycnometric method; for speed of sound: Resonance method; for viscosity: Capillary tube (Ostwald / Ubbelohde) method

C[N+](=O)[O-] [nitromethane] + COCCO
Settings	mass density [kg/m3]	speed of sound [m/s]	viscosity [mPa·s]
303.15 K, x1 = 0.05	–	1321.7	–
303.15 K, x1 = 0.0998	–	1318.5	–
303.15 K, x1 = 0.2	–	1312.9	–
303.15 K, x1 = 0.2991	–	1307.4	–
303.15 K, x1 = 0.4	–	1302.5	–
303.15 K, x1 = 0.4998	–	1298.1	–
303.15 K, x1 = 0.5	1021.4	–	–
303.15 K, x1 = 0.6	1038.1	1294.5	–
303.15 K, x1 = 0.7	1056.45	1292.2	–
303.15 K, x1 = 0.8	–	1291.7	–
303.15 K, x1 = 0.8002	1076.63	–	–
303.15 K, x1 = 0.8999	1098.72	1293.4	–
303.15 K, x1 = 0.9503	1110.81	1295.1	–
303.15 K, x1 = 1	1123.6	1298.1	–
308.15 K, x1 = 0.05	956.53	1310.2	–
308.15 K, x1 = 0.0671	–	–	1.175
308.15 K, x1 = 0.0998	962.12	1307.4	–
308.15 K, x1 = 0.1029	–	–	1.134
308.15 K, x1 = 0.1995	–	–	1.025
308.15 K, x1 = 0.2	974.11	1301.4	–
308.15 K, x1 = 0.2991	–	1295.7	–
308.15 K, x1 = 0.3	986.95	–	–
308.15 K, x1 = 0.3053	–	–	0.917
308.15 K, x1 = 0.4	1000.76	1290.4	–
308.15 K, x1 = 0.4012	–	–	0.833
308.15 K, x1 = 0.4528	–	–	0.792
308.15 K, x1 = 0.4998	–	1285.6	–
308.15 K, x1 = 0.5	1015.8	–	–
308.15 K, x1 = 0.5078	–	–	0.75
308.15 K, x1 = 0.5514	–	–	0.719
308.15 K, x1 = 0.5981	–	–	0.689
308.15 K, x1 = 0.6	1032.3	1281.5	–
308.15 K, x1 = 0.6981	–	–	0.633
308.15 K, x1 = 0.7	1050.38	1278.6	–
308.15 K, x1 = 0.7954	–	–	0.594
308.15 K, x1 = 0.8	–	1277.7	–
308.15 K, x1 = 0.8002	1070.27	–	–
308.15 K, x1 = 0.8985	–	–	0.572
308.15 K, x1 = 0.8999	1092.11	1278.6	–
308.15 K, x1 = 0.9383	–	–	0.569
308.15 K, x1 = 0.9503	1104.13	1279.6	–
308.15 K, x1 = 1	1116.86	1281.2	0.563
313.15 K, x1 = 0.0498	–	–	1.055
313.15 K, x1 = 0.05	951.39	1293.9	–
313.15 K, x1 = 0.0998	956.87	1291.1	–
313.15 K, x1 = 0.1101	–	–	0.999
313.15 K, x1 = 0.2	968.71	1285.4	–
313.15 K, x1 = 0.2081	–	–	0.911
313.15 K, x1 = 0.2991	–	1279.7	–
313.15 K, x1 = 0.3	981.39	–	–
313.15 K, x1 = 0.3023	–	–	0.835
313.15 K, x1 = 0.4	995.04	1274.2	–
313.15 K, x1 = 0.4004	–	–	0.762
313.15 K, x1 = 0.4571	–	–	0.722
313.15 K, x1 = 0.4998	–	1269.3	–
313.15 K, x1 = 0.5	1009.9	–	–
313.15 K, x1 = 0.5015	–	–	0.693
313.15 K, x1 = 0.5566	–	–	0.659
313.15 K, x1 = 0.599	–	–	0.636
313.15 K, x1 = 0.6	1026.19	1265.1	–
313.15 K, x1 = 0.6995	–	–	0.589
313.15 K, x1 = 0.7	1044.07	1262.1	–
313.15 K, x1 = 0.8	–	1260.9	0.562
313.15 K, x1 = 0.8002	1063.69	–	–
313.15 K, x1 = 0.8851	–	–	0.555
313.15 K, x1 = 0.8999	1085.24	1261.5	–
313.15 K, x1 = 0.9387	–	–	0.553
313.15 K, x1 = 0.9503	1097.15	1262.2	–
313.15 K, x1 = 1	1109.87	1262.8	0.545
